Columns and labels:
[1] = tested on: microtubules in contracting cardiomyocytes; test: Microtubule buckling in contracting cardiomyocytes (Airyscan imaging); assay type: cell-based, rat
Description: Confocal imaging was carried out on a Zeiss 780 laser scanning confocal scan head operating on an Axiovert Z1 inverted microscope equipped with a 40× oil 1.4 NA objective. High-speed super resolution imaging was carried out on a Zeiss 880 Airyscan confocal with a 63×1.4 oil NA objective (FIG. 8A-FIG. 8E, Airyscan application note can be found at http://www.zeiss.com/microscopy/enus/products/confocal-microscopes/Ism-880-with-airyscan-.html#downloads). Image analysis was performed using ZEN Black software for Airyscan processing, which involves signal integration from the 32 separate sub-resolution detectors in the Airyscan detector and subsequent deconvolution of this integrated signal (FIG. 8A-FIG. 8E). Additional signal processing was performed in Image J (NIH). For calculating the microtubule fraction of cell area (FIG. 2B-FIG. 2C), image analysis was performed blinded to the experimental treatment groups. A 1.5 μm max intensity projection was produced from 3 0.5 μm confocal z-sections. […] From the resulting binary images (FIG. 9B), the microtubule positive fraction of the total cell area was calculated for alpha and detyrosinated tubulin (FIG. 2C).
Analysis of buckling parameters was performed on 1-8 microtubules per image series. Analysis was done blind to the experimental condition and, where possible, followed a microtubule selected from resting frames to avoid biased selection of microtubules that buckled during contraction. A centerline was drawn along the axis of the microtubule and the maximum distance to the edge of the microtubule was recorded as the amplitude (FIG. 1G, red). MTs were further analyzed by recording the distance between 2 consecutive inflection points (FIG. 1G, yellow) as half the wavelength. This short metric was selected instead of full wavelength to maximize inclusion of microtubules for which labeling or z-displacement prevented inclusion of a full cycle in the image.

[2] = tested on: primary adult rat cardiomyocytes; test: Cell contractility (sarcomere shortening, 1 Hz pacing); assay type: cell-based; conditions: rat cardiomyocytes, 1 Hz; PTL 10 μM 2 hours
Description: (§1) Viral constructs were permitted to express for 24-72 hours with Moi=100-200. Parthenolide (Fisher Scientific NC9013142) treatment was carried out at room temperature for 2 hours at 10 μM. All experiments were performed within 48 hours of isolation, except those involving shTTL, which were allowed 72 hours to improve knockdown efficiency.
Experiments were performed in custom-fabricated cell chambers (Ionoptix) mounted on an LSM Zeiss 780 inverted confocal microscope using a 40× oil 1.4 NA objective and transmitted light camera (IonOptix MyoCam-S). For contractility assays, cells were maintained in NT solution and electrical field stimulation was provided at 1 Hz with a myopacer (IonOptix MYP100) through platinum electrodes lowered into the bath. Sarcomere length was measured optically by Fourier transform analysis (IonWizard, IonOptix). After 15 s of 1 Hz pacing to achieve steady state, five traces were recorded and analyzed.

isolated cardiomyocytes = test: Atomic force microscopy viscoelasticity (Standard Linear Solid Model); assay type: cell-based, rat; conditions: mean(SEM)
Description: (§2) The elastic modulus of isolated cardiomyocytes was measured using AFM indentation. Optical microscopy and AFM were performed simultaneously using an MFP3D AFM (Asylum Research) combined with an inverted Nikon TE-2000U microscope equipped with a Nikon 100×, 1.49 NA objective. TTL expression was determined by dsRED fluorescence captured via 532 nm laser excitation (CrystaLaser) and a CCD camera (Cascade-512B, Photometrics) at 900 ms exposure time controlled through the NIS Elements software package. […] Modulus characterization of myocytes was performed using 4.26 μm radius (R below) SiO2 microparticle epoxied to SiN cantilevers with nominal spring constant 0.03 N/m (CP-PNPS-SiO-A, Nano And More, USA). Cantilever spring constants were manually calibrated in air by thermal vibrations using the MFP3D prior to each experiment using a clean glass substrate. Inverse optical lever sensitivity was determined in myocyte buffer solution prior to each round of measurements.
Elastic moduli were determined by fitting the indentation curve to the Hertz model (Eq. 17) adjusted for a spherical indenter using the Asylum Research built in analysis software.
E is the elastic modulus, υ, is the cell Poisson ratio and δ is the indentation depth. Transverse compression of the cardiomyocyte is performed over a range of indentation speeds and the indentation speed is divided by the total indentation depth to obtain an effective indentation rate, f. Viscosity and velocity dependent elastic moduli were then derived by fitting each myocyte to a Standard Linear Solid Model: […]

WT myocytes = test: AFM viscoelasticity, WT mouse myocytes; assay type: cell-based; conditions: WT + PTL
Description: (§3) Animal care and procedures were approved and performed in accordance with the standards set forth by the University of Pennsylvania Institutional Animal Care and Use Committee and the Guide for the Care and Use of Laboratory Animals published by the US National Institutes of Health. Desmin knockout mice and WT littermates were provided by Dr. Robert Bloch and have been previously characterized (36). Experiments were performed blinded to genotype.
as §1, §2
(§4) E is the elastic modulus, υ, is the cell Poisson ratio and δ is the indentation depth. Transverse compression of the cardiomyocyte is performed over a range of indentation speeds and the indentation speed is divided by the total indentation depth to obtain an effective indentation rate, f. […]

desmin KO myocytes = test: AFM viscoelasticity, desmin KO mouse myocytes; assay type: cell-based; conditions: KO + PTL
Description: as §3, §1, §2, §4

human myocytes = test: Calcium measurements in human myocytes; assay type: cell-based
Description: Viable myocytes were concentrated by gravity (5-7 min) and supernatant was aspirated to remove dead cells. Myocytes were resuspended in NT solution containing 1 mM Ca^2+ and concentrated by gravity (5-7 min) again. Cardiomyocytes used acutely were maintained in NT solution for up to 6 hours. Myocytes were treated with 10 μM parthenolide (Fisher Scientific NC9013142 or Sigma P0667) or 10 μM colchicine (Sigma) at room temperature in NT solution for 2 hours. Experiments were performed within 6 hours of isolation, except for those involving viral transduction in cultured cells.
Calcium measurements were carried out as described in Example 1 with the following modifications. Myocytes were loaded with 1 μM Fluo-3-acetoxymethyl ester (Invitrogen) and 15% Pluronic F127 (a poloxamer made by BASF, Florham Park, N.J., USA) for 15 minutes. Cells were scanned using a 488-nm argon ion laser in confocal line-scan mode at 0.909 ms/line. Cells were electrically paced at 0.5 Hz at room temperature for 30 s to achieve steady state; five steady-state transients of each myocyte were averaged, pooled in groups and analyzed for calcium transient properties. The measured fluorescence (F) throughout the transient was normalized to the resting fluorescence prior to stimulation (F0) to normalize for heterogeneity in dye loading.

[3] = tested on: cardiac and skeletal muscle; conditions: 10 μM; refs (13), (8); cited from earlier work
[4] = NF human myocytes, suggested off-target effect

## C=C1C(=O)O[C@H]2[C@H]1CC/C(C)=C/CC[C@@]1(C)O[C@@H]21 [PTL, 4,5-epoxygermacra-1(10),11(13)-dien-12,6-olactone]
[1]; amplitude change on same followed MT between rest and contraction
  Amp (Δ): 0.078
[1]; buckling amplitude, contracted cardiomyocytes
  Amp Contract: 0.212
[1]; buckling amplitude, resting cardiomyocytes
  Amp Rest: 0.134
[1]; number of buckled microtubules, N microtubules 24 (Parth) and 62 (TTL)
  N Buckled: 9
[1]; vs control myocytes
  occurrence of buckling: fell significantly
[2]
  Resting SL (μm): 1.803 μm
  Vmax (μm/s): −5.35 μm/s
  Vmin (μm/s): 4.28 μm/s
  ΔSL (μm): 0.201 μm
Isolated cardiomyocytes; SLSM-fit derived viscosity
  η (Pa*s): 38.8(8.0) Pa*s
Isolated cardiomyocytes; velocity-dependent elastic modulus
  E2 (Pa): 215.3(25.0) Pa
Isolated cardiomyocytes; velocity-independent elastic modulus
  E1 (Pa): 170.6(22.5) Pa
WT myocytes
  E1 (Pa): 533.11 Pa
  E2 (Pa): 627.4 Pa
  η (Pa*s): 32.9 Pa*s
Desmin KO myocytes
  E1 (Pa): 429.76 Pa
  E2 (Pa): 512.2 Pa
  η (Pa*s): 27.4 Pa*s
Human myocytes; [4]
  [Ca2+]i amplitude: reduced
  [Ca2+]i transient decay phase: prolonged
Human myocytes; failing human myocytes
  impaired [Ca2+]i cycling: neither colch nor PTL treatment improved
Human myocytes; human myocytes
  F0 (baseline fluo3 intensity) compared to initial levels: elevated
[3]
  effect on microtubules: suppresses detyrosination

Reference: patent US20180326022A1, “COMPOSITIONS AND METHODS FOR IMPROVING HEART FUNCTION AND TREATING HEART FAILURE” (The Trustees of the University of Pennsylvania, priority 2017, published 2018)
